Experimental data reported in US20240116985A1, “STAPLED PEPTIDES AND METHODS THEREOF” (priority 2020, published 2024).
In brackets after ≈: the same amount, converted by molar mass. Where two headings read alike, the source gives them in different places.

Tests used:
[1] = biological target: T1, full-length beta-Catenin (Uniprot ID P35222) (Homo sapiens, UniProt P35222); assay: Fluorescence polarization IC50 (beta-catenin / 5FAM-TCF4 10-53 competition); format: binding
T1 construct: 10 nM full-length beta-Catenin (Uniprot ID P35222)
T1 sequence (P35222 1-781): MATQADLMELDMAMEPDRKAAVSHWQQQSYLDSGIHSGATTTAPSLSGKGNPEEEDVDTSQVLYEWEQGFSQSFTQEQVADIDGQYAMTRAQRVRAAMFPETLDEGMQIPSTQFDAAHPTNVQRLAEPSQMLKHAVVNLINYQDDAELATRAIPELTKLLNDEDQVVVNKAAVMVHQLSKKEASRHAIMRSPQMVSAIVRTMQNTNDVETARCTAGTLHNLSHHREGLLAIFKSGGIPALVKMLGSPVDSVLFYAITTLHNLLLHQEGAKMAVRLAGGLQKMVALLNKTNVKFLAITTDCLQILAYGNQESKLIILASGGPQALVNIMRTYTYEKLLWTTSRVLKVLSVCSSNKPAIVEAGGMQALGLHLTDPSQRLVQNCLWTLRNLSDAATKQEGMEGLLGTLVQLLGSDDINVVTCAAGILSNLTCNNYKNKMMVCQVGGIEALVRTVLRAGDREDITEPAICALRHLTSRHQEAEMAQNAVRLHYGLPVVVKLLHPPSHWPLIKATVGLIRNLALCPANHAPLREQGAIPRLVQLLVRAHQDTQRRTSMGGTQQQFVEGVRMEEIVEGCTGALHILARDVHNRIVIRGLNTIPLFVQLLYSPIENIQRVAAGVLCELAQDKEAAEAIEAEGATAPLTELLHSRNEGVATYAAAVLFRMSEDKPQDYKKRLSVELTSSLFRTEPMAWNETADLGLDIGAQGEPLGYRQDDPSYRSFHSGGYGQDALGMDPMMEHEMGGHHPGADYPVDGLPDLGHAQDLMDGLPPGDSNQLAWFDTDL

[2] = CHI Log D procedure; format: physicochemical; conditions: for chromatographic logD / logD: pH 7.4, CHI Log D; for CHI Log D: pH 7.4
[3] = Solubility in PBS; format: physicochemical
In short: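 Read-out is the HPLC peak area of the supernatant from ultracentrifuged PBS solution, scaled against a 50 μM peptide DMSO injection; value reported as [(PBS area)/(DMSO area)]*50 uM.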

[4] = Table E2-1, read-out: beta-Catenin FP IC50
[5] = fluorescence polarization, read-out: beta-Catenin FP IC50
[6] = fluorescence polarization, beta-catenin, read-out: FP EC50

| Compound | IC50 [1, 4] [µM] | chromatographic logD [2] | CHI Log D [2] | Solubility [3] [µM] | further results |
| --- | --- | --- | --- | --- | --- |
| CC(=O)N1CCC[C@]12CC=CCCCC1(CCCC=CCCCCCC[C@@](C)(C(=O)N[C@@H](Cc3ccccc3)C(=O)N[C@@H](Cc3c[nH]c4ccccc34)C(=O)N[C@@H](CCC(N)=O)C(N)=O)NC(=O)[C@H](C(C)C)NC(=O)C(Cc3cncn3C)NC(=O)[C@H](C)NC(=O)[C@H](C)NC(=O)[C@H](CC(=O)O)NC(=O)[C@H](CC(=O)O)NC1=O)NC(=O)[C@H](C)NC(=O)[C@H](CC(=O)O)NC2=O (single isomer, unassigned) [I-331, Ac-PL3-Asp-Ala-B5-Asp-Asp-Ala-Ala-3meH-Val-S8-Phe-Trp-Gln-NH2] | 5 | 2.02 |  |  | solubility at 15 min ([3]; Solubility (uM)): 41 µM (≈ 73.2 µg/mL) |
| CC(=O)N1CCC[C@]12CC=CCCCC1(CCCC=CCCCCCC[C@@](C)(C(=O)N[C@@H](Cc3ccccc3)C(=O)N[C@@H](Cc3csc4ccccc34)C(=O)NC(Cc3cncn3C)C(N)=O)NC(=O)[C@H](CC(N)=O)NC(=O)[C@H](Cc3ccccc3)NC(=O)[C@H](C)NC(=O)[C@H](C)NC(=O)[C@H](CCC(=O)O)NC(=O)[C@H](CC(=O)O)NC1=O)NC(=O)[C@H](C)NC(=O)[C@H](CC(=O)O)NC2=O (single isomer, unassigned) [I-480, Ac-PL3-Asp-Ala-B5-Asp-Glu-Ala-Ala-Phe-Asn-S8-Phe-BztA-3MeH-NH2] |  | 2.1 |  |  | IC50 [1, 5]: 0.176 µM; solubility at 15 min ([3]; Solubility (uM)): 36 µM (≈ 66.6 µg/mL) |
| CC(=O)N1CCC[C@]12CC=CCCCC1(CCCC=CCCCCCC[C@@](C)(C(=O)N[C@@H](Cc3ccccc3)C(=O)N[C@@H](Cc3csc4ccccc34)C(=O)NC(Cc3cncn3C)C(N)=O)NC(=O)[C@H](CC(N)=O)NC(=O)[C@H](Cc3ccccc3)NC(=O)[C@H](C)NC(=O)[C@H](C)NC(=O)[C@H](CCC(=O)O)NC(=O)[C@H](CC(=O)O)NC1=O)NC(=O)[C@H](C)NC(=O)[C@H](CC(=O)O)NC2=O (single isomer, unassigned) [I-481, Ac-PL3-Asp-Ala-B5-Asp-Glu-Ala-Ala-Phe-Asn-S8-Phe-BztA-3MeH-NH2] |  |  | 2.133 |  | IC50 [1, 5]: 0.042 µM; Solubility ([3]; 15 min): 30 µM (≈ 55.5 µg/mL) |
| CC(=O)N1CCC[C@]12CC=CCCCC1(CCCC=CCCCCC[C@@](C)(C(=O)N[C@@H](Cc3ccccc3)C(=O)N[C@@H](Cc3c[nH]c4ccccc34)C(=O)N[C@@H](CCC(N)=O)C(N)=O)NC(=O)[C@H](C(C)C)NC(=O)[C@H](Cc3ccccc3)NC(=O)[C@H](C)NC(=O)[C@H](C)NC(=O)[C@H](CCC(=O)O)NC(=O)[C@H](CC(=O)O)NC1=O)NC(=O)[C@H](C)NC(=O)[C@H](CC(=O)O)NC2=O (stereo partly drawn) [I-132, Ac-PL3-Asp-Ala-B5-Asp-Glu-Ala-Ala-Phe-Val-S7-Phe-Trp-Gln-NH2] | 5 | 1.69 |  |  | Solubility ([3]; Solubility (uM)): 49 µM (≈ 87.3 µg/mL) |
| CC(=O)N1CCC[C@]12CC=CCCCC1(CCCC=CCCCCCC[C@@](C)(C(=O)N[C@@H](Cc3ccccc3)C(=O)N[C@@H](Cc3ccc4ccccc4c3)C(=O)N[C@@H](CCC(N)=O)C(N)=O)NC(=O)[C@H](C(C)C)NC(=O)[C@H](Cc3ccccc3)NC(=O)[C@H](C)NC(=O)[C@H](C)NC(=O)[C@H](CCC(=O)O)NC(=O)[C@H](CC(=O)O)NC1=O)NC(=O)[C@H](C)NC(=O)[C@H](CC(=O)O)NC2=O (stereo partly drawn) [I-140, Ac-PL3-Asp-Ala-B5-Asp-Glu-Ala-Ala-Phe-Val-S8-Phe-2NapA-Gln-NH2] | 2.27 | 2.19 |  |  | Solubility ([3]; Solubility (uM)): 48 µM (≈ 86.7 µg/mL) |
| CC(=O)N1CCC[C@]12CC=CCCCC1(CCCC=CCCCCCC[C@@](C)(C(=O)N[C@@H](Cc3ccccc3)C(=O)N[C@@H](Cc3c[nH]c4ccccc34)C(=O)N[C@@H](CCC(N)=O)C(N)=O)NC(=O)[C@H](C(C)C)NC(=O)[C@H](Cc3cccc(F)c3)NC(=O)[C@H](C)NC(=O)[C@H](C)NC(=O)[C@H](CC(=O)O)NC(=O)[C@H](CC(=O)O)NC1=O)NC(=O)[C@H](C)NC(=O)[C@H](CC(=O)O)NC2=O (stereo partly drawn) [I-265, Ac-PL3-Asp-Ala-B5-Asp-Asp-Ala-Ala-3FF-Val-S8-Phe-Trp-Gln-NH2] | 3.76 |  | 2.032 | 36 (≈ 64.8 µg/mL) | IC50 [1, 6]: 3.76 µM |
| CC(=O)N1CCC[C@]12CC=CCCCC1(CCCC=CCCCCCC[C@@](C)(C(=O)N[C@@H](Cc3ccccc3)C(=O)N[C@@H](Cc3c[nH]c4ccccc34)C(=O)N[C@@H](CCC(N)=O)C(N)=O)NC(=O)[C@H](C(C)C)NC(=O)[C@H](Cc3ccc(F)c(F)c3)NC(=O)[C@H](C)NC(=O)[C@H](C)NC(=O)[C@H](CC(=O)O)NC(=O)[C@H](CC(=O)O)NC1=O)NC(=O)[C@H](C)NC(=O)[C@H](CC(=O)O)NC2=O (stereo partly drawn) [I-267, Ac-PL3-Asp-Ala-B5-Asp-Asp-Ala-Ala-34FF-Val-S8-Phe-Trp-Gln-NH2] | 5 | 2.05 |  |  | Solubility ([3]; Solubility (uM)): 37 µM (≈ 67.2 µg/mL) |
| CC(=O)N1CCC[C@]12CC=CCCCC1(CCCC=CCCCCCC[C@@](C)(C(=O)N[C@@H](Cc3ccccc3)C(=O)N[C@@H](Cc3c[nH]c4ccccc34)C(=O)N[C@@H](CCC(N)=O)C(N)=O)NC(=O)[C@H](C(C)C)NC(=O)[C@H](Cc3ccccc3)NC(=O)[C@H](C)NC(=O)[C@H](C)NC(=O)[C@H](Cc3cccnc3)NC(=O)[C@H](CC(=O)O)NC1=O)NC(=O)[C@H](C)NC(=O)[C@H](CC(=O)O)NC2=O (stereo partly drawn) [I-271, Ac-PL3-Asp-Ala-B5-Asp-3PyrA-Ala-Ala-Phe-Val-S8-Phe-Trp-Gln-NH2] | 5 | 2.44 |  | 10 (≈ 18.1 µg/mL) |  |
| CC(=O)N1CCC[C@]12CC=CCCCC1(CCCC=CCCCCCC[C@@](C)(C(=O)N[C@@H](Cc3ccccc3)C(=O)N[C@@H](Cc3c[nH]c4ccccc34)C(=O)N[C@@H](CCC(N)=O)C(N)=O)NC(=O)[C@H](C(C)C)NC(=O)[C@H](Cc3ccccc3)NC(=O)[C@H](C)NC(=O)[C@H](C)NC(=O)[C@H](Cc3c[nH]cn3)NC(=O)[C@H](CC(=O)O)NC1=O)NC(=O)[C@H](C)NC(=O)[C@H](CC(=O)O)NC2=O (stereo partly drawn) [I-305, Ac-PL3-Asp-Ala-B5-Asp-His-Ala-Ala-Phe-Val-S8-Phe-Trp-Gln-NH2] | 3.98 |  | 2.348 | 10 (≈ 18 µg/mL) | IC50 [1, 6]: 3.98 µM |
| CC(=O)N1CCC[C@]12CC=CCCCC1(CCCC=CCCCCCC[C@@](C)(C(=O)N[C@@H](Cc3ccsc3)C(=O)N[C@@H](Cc3csc4ccccc34)C(=O)N[C@@H](CCC(N)=O)C(=O)N[C@@H](C)C(=O)N[C@@H](C)C(=O)N[C@@H](C)C(N)=O)NC(=O)[C@H](CC(N)=O)NC(=O)[C@H](Cc3ccccc3)NC(=O)[C@H](C)NC(=O)[C@H](C)NC(=O)[C@H](CC(=O)O)NC(=O)[C@H](CC(=O)O)NC1=O)NC(=O)[C@H](CC(C)(C)C)NC(=O)[C@H](CC(=O)O)NC2=O (stereo partly drawn) [I-874, Ac-PL3-Asp-Npg-B5-Asp-Asp-Ala-Ala-Phe-Asn-S8-3Thi-BztA-Gln-Ala-Ala] |  |  |  | 50 (≈ 104 µg/mL) | logD [2]: 2.31 |
| CC(=O)N1CCC[C@]12CC=CCCCC1(CCCC=CCCCCCC[C@@](C)(C(=O)N[C@@H](Cc3ccsc3)C(=O)N[C@@H](Cc3csc4ccccc34)C(=O)N[C@@H](CCC(N)=O)C(=O)N[C@H](C)C(=O)N[C@H](C)C(=O)N[C@H](C)C(N)=O)NC(=O)[C@H](CC(N)=O)NC(=O)[C@H](Cc3ccccc3)NC(=O)[C@H](C)NC(=O)[C@H](C)NC(=O)[C@H](CC(=O)O)NC(=O)[C@H](CC(=O)O)NC1=O)NC(=O)[C@H](CC(C)(C)C)NC(=O)[C@H](CC(=O)O)NC2=O (stereo partly drawn) [I-876, Ac-PL3-Asp-Npg-B5-Asp-Asp-Ala-Ala-Phe-Asn-S8-3Thi-BztA-Gln-dAla-dAla] |  |  |  | 50 (≈ 104 µg/mL) | logD [2]: 2.26 |
| CC(=O)N1CCC[C@]12CC=CCCCC1(CCCC=CCCCCCC[C@@](C)(C(=O)N[C@@H](Cc3ccsc3)C(=O)N[C@@H](Cc3csc4ccccc34)C(=O)N[C@@H](CCC(N)=O)C(=O)N[C@@H](C)C(=O)N[C@@H](C)C(=O)N[C@H](C)C(N)=O)NC(=O)[C@H](CC(N)=O)NC(=O)[C@H](Cc3ccccc3)NC(=O)[C@H](C)NC(=O)[C@H](C)NC(=O)[C@H](CC(=O)O)NC(=O)[C@H](CC(=O)O)NC1=O)NC(=O)[C@H](CC(C)(C)C)NC(=O)[C@H](CC(=O)O)NC2=O (stereo partly drawn) [I-877, Ac-PL3-Asp-Npg-B5-Asp-Asp-Ala-Ala-Phe-Asn-S8-3Thi-BztA-Gln-Ala-Ala] |  |  |  | 50 (≈ 104 µg/mL) | logD [2]: 2.35 |
| COCCOCCC(=O)NCCCC[C@@H]1NC(=O)[C@H](C)NC(=O)[C@H](CC(=O)O)NC(=O)[C@H](CC(=O)O)NC(=O)C2(CCCC=CCCCOC(=O)N3CC[C@@](C(=O)N[C@@H](Cc4ccsc4)C(=O)N[C@@H](Cc4csc5ccccc45)C(=O)N[C@@H](CCC(N)=O)C(N)=O)(C3)NC(=O)[C@H](CC(N)=O)NC(=O)[C@H](Cc3ccccc3)NC1=O)CCCC=CC[C@]1(CCCN1C(C)=O)C(=O)N[C@@H](CC(=O)O)C(=O)N[C@@H](CC(C)(C)C)C(=O)N2 (stereo partly drawn) [I-892, Ac-PL3-Asp-Npg-B5-Asp-Asp-Ala-[mPEG2]Lys-Phe-Asn-PyrS2-3Thi-BztA-Gln-NH2] |  |  | 1.475 | 33 (≈ 69.5 µg/mL) |  |
